Laboratory results taken from article PMC5949348, “The Metabolism of Separase Inhibitor Sepin-1 in Human, Mouse, and Rat Liver Microsomes” (Frontiers in Pharmacology, 2018).

Legend:
[1] = target: T1, CYP2D6 (Homo sapiens, UniProt P10635); assay: Sepin-1 metabolism by recombinant CYP2D6; assay type: in vitro ADME; conditions: 30 μM sepin-1, 2 pmol cDNA-expressed enzyme, NADPH 1.0 mM, 30 min; unit not given, highest enzyme per metabolite = 100.0
T1 construct: purchased XenoTech
Protocol: (§1) Incubations were conducted in 1× phosphate-buffered saline (1× PBS, pH 7.4), containing 30 μM sepin-1, 1.0 mg HLM, MLM, RLM, or 2 pmol of each cDNA-expressed P450 enzyme (control, CYP1A2, 2A6, 2B6, 2C8, 2C9, 2C19, 2D6, 2E1, and CYP3A4) in a final volume of 190 μl. After 5 min of pre-incubation at 37°C, the reaction was initiated by adding 10 μl of 20 mM NADPH (final concentration 1.0 mM) and continued for 30 min, with shaking at 37°C. Incubations lacking NADPH served as controls. Reactions were terminated with 200 μl of ice-cold methanol, followed by vortexing for 30 s and centrifuging at 15,000 × g for 15 min. Each supernatant was transferred to an auto sampler vial, and 5.0 μl was injected on to UHPLC coupled with a QTOFMS system for metabolite analysis. Incubations were conducted in quadruplicate for HLM, in triplicate for MLM and RLM, and in duplicate for cDNA-expressed P450 enzymes.
(§2) The separation of sepin-1 and its metabolites was achieved using a 1260 Infinity Binary LC System (Agilent Technologies, Santa Clara, CA, United States) equipped with 100 mm × 2.1 mm (Agilent XDB C18) column. The column temperature was maintained at 40°C. The flow rate was 0.3 ml/min, with a gradient ranging from 2% to 98% aqueous acetonitrile containing 0.1% formic acid in a 15-min run. QTOFMS was operated in a positive mode with electrospray ionization. […]

[2] = target: T2, CYP3A4 (Homo sapiens, UniProt P08684); assay: Sepin-1 metabolism by recombinant CYP3A4; assay type: in vitro ADME; conditions: 30 μM sepin-1, 2 pmol cDNA-expressed enzyme, NADPH 1.0 mM, 30 min; unit not given, highest enzyme per metabolite = 100.0
T2 construct: purchased XenoTech
Protocol: as §1, §2

[3] = test system: T3, CYP2E1; assay: Sepin-1 metabolism by recombinant CYP2E1; assay type: in vitro ADME, human; conditions: 30 μM sepin-1, 2 pmol cDNA-expressed enzyme, NADPH 1.0 mM, 30 min; unit not given, highest enzyme per metabolite = 100.0
T3 construct: purchased XenoTech
Protocol: as §1, §2

[4] = target: T4, CYP2B6 (Homo sapiens, UniProt P20813); assay: Sepin-1 metabolism by recombinant CYP2B6; assay type: in vitro ADME; conditions: 30 μM sepin-1, 2 pmol cDNA-expressed enzyme, NADPH 1.0 mM, 30 min; unit not given, highest enzyme per metabolite = 100.0
T4 construct: purchased XenoTech
T4 sequence (P20813 1-491): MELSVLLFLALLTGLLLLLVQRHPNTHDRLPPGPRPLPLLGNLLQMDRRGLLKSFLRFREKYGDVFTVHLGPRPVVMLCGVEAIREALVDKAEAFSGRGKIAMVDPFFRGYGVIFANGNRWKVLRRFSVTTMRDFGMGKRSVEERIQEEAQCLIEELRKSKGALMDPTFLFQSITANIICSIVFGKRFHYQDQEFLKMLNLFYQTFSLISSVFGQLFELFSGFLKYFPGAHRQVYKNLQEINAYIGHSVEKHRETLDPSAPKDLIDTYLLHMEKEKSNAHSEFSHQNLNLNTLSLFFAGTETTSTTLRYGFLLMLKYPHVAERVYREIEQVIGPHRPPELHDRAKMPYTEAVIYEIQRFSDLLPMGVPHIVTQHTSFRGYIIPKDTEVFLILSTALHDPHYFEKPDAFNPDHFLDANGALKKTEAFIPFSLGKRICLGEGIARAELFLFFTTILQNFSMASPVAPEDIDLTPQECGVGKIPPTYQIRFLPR
Protocol: as §1, §2

[5] = target: T5, CYP2C8 (Homo sapiens, UniProt P10632); assay: Sepin-1 metabolism by recombinant CYP2C8; assay type: in vitro ADME; conditions: 30 μM sepin-1, 2 pmol cDNA-expressed enzyme, NADPH 1.0 mM, 30 min; unit not given, highest enzyme per metabolite = 100.0
T5 construct: purchased XenoTech
T5 sequence (P10632 1-490): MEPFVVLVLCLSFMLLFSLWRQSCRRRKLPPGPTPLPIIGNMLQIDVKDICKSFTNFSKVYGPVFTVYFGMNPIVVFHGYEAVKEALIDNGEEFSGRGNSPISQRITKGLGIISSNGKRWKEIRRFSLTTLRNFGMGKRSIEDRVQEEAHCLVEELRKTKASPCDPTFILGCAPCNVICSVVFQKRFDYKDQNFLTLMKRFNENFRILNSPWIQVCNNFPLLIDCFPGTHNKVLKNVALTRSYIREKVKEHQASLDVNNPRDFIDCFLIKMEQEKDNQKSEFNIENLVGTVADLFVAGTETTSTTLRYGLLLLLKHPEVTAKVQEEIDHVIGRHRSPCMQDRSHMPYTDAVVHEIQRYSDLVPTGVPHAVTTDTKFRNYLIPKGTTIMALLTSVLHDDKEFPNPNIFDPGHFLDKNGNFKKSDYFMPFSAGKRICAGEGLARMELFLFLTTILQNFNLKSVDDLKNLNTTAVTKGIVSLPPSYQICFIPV
Protocol: as §1, §2

[6] = Metabolism of sepin-1 in HLM, MLM and RLM (metabolite profiling, UHPLC-QTOFMS); assay type: in vitro ADME, human, mouse, rat; conditions: 30 min; for Source (liver microsomes in which the metabolite was found): 30 μM sepin-1, 1.0 mg microsomes, NADPH 1.0 mM, 37°C; for Relative abundance of metabolite across HLM, MLM and RLM (in words): 30 μM sepin-1, NADPH 1.0 mM
Protocol: as §1
(§3) The separation of sepin-1 and its metabolites was achieved using a 1260 Infinity Binary LC System (Agilent Technologies, Santa Clara, CA, United States) equipped with 100 mm × 2.1 mm (Agilent XDB C18) column. The column temperature was maintained at 40°C. The flow rate was 0.3 ml/min, with a gradient ranging from 2% to 98% aqueous acetonitrile containing 0.1% formic acid in a 15-min run. QTOFMS was operated in a positive mode with electrospray ionization. Ultra-high pure nitrogen was applied as the drying gas (12 l/min) and the collision gas. The drying gas temperature was set at 325°C, and the nebulizer pressure was kept at 35 psi. The capillary voltages were set at 3.5 kV. During MS, real-time mass correction and accurate mass were achieved by continuously measuring standard reference ions at m/z 121.0508 and 922.0098 in the positive mode. The MS/MS of sepin-1 metabolites was performed in a targeted mode with a default isolation width of m/z 4 and collision energy ramp ranging from 10 to 45 V.
Mass chromatograms and mass spectra were acquired by MassHunter Workstation Data Acquisition Software (Agilent, Santa Clara, CA, United States) in centroid and profile formats from m/z 100 to 1000. The acquisition rate was set as 1.5 spectra per second. Centroid and integrated mass chromatographic data were processed by Mass Profinder and Mass Profiler Professional Software (Agilent, Santa Clara, CA, United States) to generate a multivariate data matrix. The corresponding data matrices were then exported into SIMCA13 (Umetrics, Kinnelon, NJ, United States) for multivariate data analysis. OPLS-DA was conducted on Pareto-scaled data. For the QQQMS data, QQQ Quantitative Analysis Software (Agilent, Santa Clara, CA, United States) was used for metabolite analysis. […] Statistical differences between two groups were determined by Student’s t-test.

[7] = target: T6, CYP2C19 (Homo sapiens, UniProt P33261); assay: Sepin-1 metabolism by recombinant CYP2C19; assay type: in vitro ADME; conditions: 30 μM sepin-1, 2 pmol cDNA-expressed enzyme, NADPH 1.0 mM, 30 min; unit not given, highest enzyme per metabolite = 100.0
T6 construct: purchased XenoTech
Protocol: as §1, §2

[8] = target: T7, CYP2C9 (Homo sapiens, UniProt P11712); assay: Sepin-1 metabolism by recombinant CYP2C9; assay type: in vitro ADME; conditions: 30 μM sepin-1, 2 pmol cDNA-expressed enzyme, NADPH 1.0 mM, 30 min; unit not given, highest enzyme per metabolite = 100.0
T7 construct: purchased XenoTech
Protocol: as §1, §2

[9] = Sepin-1 metabolism with cDNA-expressed P450 control; assay type: in vitro ADME, human; conditions: 30 μM sepin-1, control enzyme preparation, NADPH 1.0 mM, 30 min; unit not given, highest enzyme per metabolite = 100.0
Protocol: as §1, §2

[10] = Metabolism of sepin-1 in human liver microsomes; assay type: in vitro ADME; conditions: HLM, 30 μM sepin-1, with or without NADPH 1.0 mM
Protocol: as §1
as §3, with “During MS, real-time mass correction and accurate mass were achieved by continuously measuring standard reference ions at m/z 121.0508 and 922.0098 in the positive mode. The MS/MS of sepin-1 metabolites was performed in a targeted mode with a default isolation width of m/z 4 and collision energy ramp ranging from 10 to 45 V.” left out
Mass chromatograms and mass spectra were acquired by MassHunter Workstation Data Acquisition Software (Agilent, Santa Clara, CA, United States) in centroid and profile formats from m/z 100 to 1000. […] For the QQQMS data, QQQ Quantitative Analysis Software (Agilent, Santa Clara, CA, United States) was used for metabolite analysis. […] Statistical differences between two groups were determined by Student’s t-test.

[11] = test system: T8, CYP2A6; assay: Sepin-1 metabolism by recombinant CYP2A6; assay type: in vitro ADME, human; conditions: 30 μM sepin-1, 2 pmol cDNA-expressed enzyme, NADPH 1.0 mM, 30 min; unit not given, highest enzyme per metabolite = 100.0
T8 construct: purchased XenoTech
Protocol: as §1, §2

[12] = target: T9, CYP1A2 (Homo sapiens, UniProt P05177); assay: Sepin-1 metabolism by recombinant CYP1A2; assay type: in vitro ADME; conditions: 30 μM sepin-1, 2 pmol cDNA-expressed enzyme, NADPH 1.0 mM, 30 min; unit not given, highest enzyme per metabolite = 100.0
T9 construct: purchased XenoTech
T9 sequence (P05177 1-516): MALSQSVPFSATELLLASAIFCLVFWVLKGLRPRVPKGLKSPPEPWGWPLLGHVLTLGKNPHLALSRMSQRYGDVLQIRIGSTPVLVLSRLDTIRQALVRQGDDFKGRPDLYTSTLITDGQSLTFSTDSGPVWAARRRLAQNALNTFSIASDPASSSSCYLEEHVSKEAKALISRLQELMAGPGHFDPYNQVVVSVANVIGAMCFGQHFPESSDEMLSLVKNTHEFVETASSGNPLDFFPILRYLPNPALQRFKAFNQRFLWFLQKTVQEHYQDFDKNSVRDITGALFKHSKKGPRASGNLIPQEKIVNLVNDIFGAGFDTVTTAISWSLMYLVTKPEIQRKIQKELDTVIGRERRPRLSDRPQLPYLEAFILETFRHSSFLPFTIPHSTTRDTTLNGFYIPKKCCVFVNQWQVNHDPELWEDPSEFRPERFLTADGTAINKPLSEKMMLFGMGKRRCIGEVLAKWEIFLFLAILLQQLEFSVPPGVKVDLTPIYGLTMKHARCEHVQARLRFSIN
Protocol: as §1, §2

T1 sequence (P10635 whole entry): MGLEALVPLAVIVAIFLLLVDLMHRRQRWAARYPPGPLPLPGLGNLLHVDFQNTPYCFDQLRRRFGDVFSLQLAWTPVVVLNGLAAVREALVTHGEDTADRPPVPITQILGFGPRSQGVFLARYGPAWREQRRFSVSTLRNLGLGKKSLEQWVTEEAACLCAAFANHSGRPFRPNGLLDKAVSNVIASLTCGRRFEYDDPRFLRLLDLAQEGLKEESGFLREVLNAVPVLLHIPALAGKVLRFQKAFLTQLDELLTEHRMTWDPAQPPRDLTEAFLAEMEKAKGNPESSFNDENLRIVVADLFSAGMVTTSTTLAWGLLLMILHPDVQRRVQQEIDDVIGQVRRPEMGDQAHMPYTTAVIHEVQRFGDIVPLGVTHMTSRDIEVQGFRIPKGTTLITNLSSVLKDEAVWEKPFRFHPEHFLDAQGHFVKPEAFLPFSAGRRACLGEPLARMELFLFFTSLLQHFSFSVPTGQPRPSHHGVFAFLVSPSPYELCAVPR
T6 sequence (P33261 whole entry): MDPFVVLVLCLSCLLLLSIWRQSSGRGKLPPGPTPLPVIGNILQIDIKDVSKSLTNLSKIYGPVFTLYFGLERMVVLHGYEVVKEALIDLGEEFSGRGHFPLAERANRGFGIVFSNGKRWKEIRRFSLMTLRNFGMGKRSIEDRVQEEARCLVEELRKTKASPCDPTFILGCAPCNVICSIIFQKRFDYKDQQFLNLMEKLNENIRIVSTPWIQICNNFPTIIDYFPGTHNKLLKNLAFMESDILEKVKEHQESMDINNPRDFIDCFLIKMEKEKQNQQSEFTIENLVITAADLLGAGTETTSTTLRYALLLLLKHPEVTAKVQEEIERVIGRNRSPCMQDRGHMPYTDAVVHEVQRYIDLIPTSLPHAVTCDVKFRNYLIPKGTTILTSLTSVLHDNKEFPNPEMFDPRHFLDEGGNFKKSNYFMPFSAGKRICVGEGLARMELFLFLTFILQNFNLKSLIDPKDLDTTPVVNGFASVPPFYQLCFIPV
T2 sequence (P08684 whole entry): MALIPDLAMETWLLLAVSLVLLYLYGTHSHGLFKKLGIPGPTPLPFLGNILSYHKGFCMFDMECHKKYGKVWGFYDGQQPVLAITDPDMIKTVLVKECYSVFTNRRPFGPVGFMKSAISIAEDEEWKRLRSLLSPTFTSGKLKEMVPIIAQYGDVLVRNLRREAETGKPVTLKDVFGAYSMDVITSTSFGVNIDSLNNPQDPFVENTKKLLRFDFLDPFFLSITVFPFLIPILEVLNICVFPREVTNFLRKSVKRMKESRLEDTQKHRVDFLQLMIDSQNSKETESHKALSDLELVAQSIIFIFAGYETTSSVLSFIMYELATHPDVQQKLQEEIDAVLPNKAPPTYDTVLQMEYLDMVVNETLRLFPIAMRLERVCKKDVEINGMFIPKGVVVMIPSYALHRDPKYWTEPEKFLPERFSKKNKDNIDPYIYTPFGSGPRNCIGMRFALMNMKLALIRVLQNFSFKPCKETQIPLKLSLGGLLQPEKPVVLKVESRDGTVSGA
T7 sequence (P11712 whole entry): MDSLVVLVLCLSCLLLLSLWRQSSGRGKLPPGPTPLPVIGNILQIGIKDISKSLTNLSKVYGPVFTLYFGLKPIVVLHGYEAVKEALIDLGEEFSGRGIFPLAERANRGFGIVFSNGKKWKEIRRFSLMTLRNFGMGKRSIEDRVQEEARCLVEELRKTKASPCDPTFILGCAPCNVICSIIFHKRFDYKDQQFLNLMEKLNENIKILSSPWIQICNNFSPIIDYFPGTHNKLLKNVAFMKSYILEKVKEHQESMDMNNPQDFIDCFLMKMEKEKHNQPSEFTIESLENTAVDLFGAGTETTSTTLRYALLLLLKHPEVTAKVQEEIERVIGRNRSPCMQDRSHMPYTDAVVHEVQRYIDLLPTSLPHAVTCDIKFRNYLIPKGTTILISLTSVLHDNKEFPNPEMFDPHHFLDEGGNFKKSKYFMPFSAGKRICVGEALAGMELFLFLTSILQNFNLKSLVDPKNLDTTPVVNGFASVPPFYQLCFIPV

| Formation of metabolite by CYP2D6 (Role of P450s in the metabolism of sepin-1) [1] | Formation of metabolite by CYP3A4 (Role of P450s in the metabolism of sepin-1) [2] | Formation of metabolite by CYP2E1 (Role of P450s in the metabolism of sepin-1) [3] | Formation of metabolite by CYP2B6 (Role of P450s in the metabolism of sepin-1) [4] | Formation of metabolite by CYP2C8 (Role of P450s in the metabolism of sepin-1) [5] | Formation of metabolite by CYP2C19 (Role of P450s in the metabolism of sepin-1) [7] | Formation of metabolite by CYP2C9 (Role of P450s in the metabolism of sepin-1) [8] | Formation of metabolite, Control (Role of P450s in the metabolism of sepin-1) [9] | NADPH dependence of metabolite formation [10] | Formation of metabolite by CYP2A6 (Role of P450s in the metabolism of sepin-1) [11] | Formation of metabolite by CYP1A2 (Role of P450s in the metabolism of sepin-1) [12] | SMILES | Source (liver microsomes in which the metabolite was found) [6] | Relative abundance of metabolite across HLM, MLM and RLM (in words) [6] |
| --- | --- | --- | --- | --- | --- | --- | --- | --- | --- | --- | --- | --- | --- |
| 96.9 | 100.0 | 89.9 | 91.9 | 91.3 | 90.8 | 90.4 | 79.5 | NADPH dependent | 90.8 | 86.3 | CC1(C)Nc2ccc([N+](=O)[O-])cc2N1 [M1] | HLM, MLM, RLM | dominant metabolites in all the three species |
| 100.0 | 95.3 | 53.2 | 85.9 | 63.6 | 67.5 | 57.2 | 41.5 | NADPH dependent | 76.1 | 50.5 | CC1(C)[N+]([O-])=c2ccc(N)cc2=[N+]1[O-] [M2] | HLM, MLM, RLM | dominant metabolites in all the three species |
